Results taken from patent US20030054980A1, “Ceruloplasmin and uses thereof in neurodegenerative related conditions” (priority 2000, published 2003).

How the values were obtained:
[1] = tested on: P19 neurons; assay: Pro-aggregative effect on P19 neurons (culture morphology, surfaces not occupied by cells); details: for Morphological change: 24 h; for induction of neuronal aggregation (text summary of Table 1): concentrations of Table 1, copper equivalent to (His2Cu: or higher than) that in CP
Experimental: Undifferentiated P19 cells were propagated in complete medium containing alpha-modified Eagle's minimal essential medium (α-MEM; Gibco-BRL, Burlington, Ontario) supplemented with 10% heat-inactivated fetal bovine serum (Cansera International, Rexdale, Ontario), 2.5 U/mL penicillin and 2.5 μg/mL streptomycin (Sigma-Aldrich). Cells were maintained at 37° C. in a humidified atmosphere of 5% CO2 and passaged every two days on non-coated tissue culture dishes. To achieve neuronal differentiation, P19 cells were seeded in bacteriological-grade petri dishes at a density of 0.9×10^5 cells/mL, and grown as aggregates, during 4 days, in complete medium containing 0.5 μM RA (Sigma-Aldrich). At day 4, aggregates were dissociated by incubation for 3 min, at room temperature, with 0.025% trypsin (250 Nα-benzoyl-L-Arg-ethyl ester (BAEE) unit per 15×10^6 cells; Sigma-Aldrich) in phosphate buffer saline (PBS) containing 1 mM EDTA, and digestion stopped by adding an equal volume of complete α-MEM medium. The resulting cellular suspensions were passaged by pipetting and subjected to two wash-and-centrifuge cycles, and individualized cells (neurons) were transferred (1500-1800 cells/mm^2) to gelatinized tissue culture dishes or multiwell plates containing NEUROBASAL™ medium (Gibco-BRL) supplemented with B27™ supplement (Gibco-BRL) and 0.5 mM L-glutamine, but no RA. Gelatinization of culture surfaces was done by incubation with 0.1% gelatin for 0.5 h at 22° C., followed by several washes with PBS to remove unbound protein. For comparison purposes, solutions of 2% gelatin, 10 μg/mL fibronectin, 10 μg/mL laminin and 5 mg/mL CP (in this case, in a proportion of 50 μL per cm^2) were also used for coating. Differentiation to fibroblasts was done by culturing P19 cells as monolayers, for 4 days, in complete medium containing RA. Cells were trypsinized every 2 days and replated in non-coated tissue culture dishes each time. From day 4 and after, cells were cultured in complete medium without RA.
At 3, 24 or 48 h after plating, P19 neurons were incubated for 24 h in a fresh provision of supplemented Neurobasal medium not containing (control) or containing CP or another agent. Protease inhibitors were added 1 h before CP. Freshly individualized cells of the other cell types tested were let to adhere to culture surfaces, in their normal culture medium (containing serum), for times indicated: undifferentiated P19 cells and their fibroblast derivatives (both for 3 and 24 h), rat smooth muscle cells (7 days), and rat hepatocytes (3 h). Afterwards, cells were extensively rinsed with PBS and incubated for 24 h in supplemented Neurobasal medium in the absence or presence of CP. After treatment with CP or other agents, cells were examined for morphology, viability, ALAMARBLUE™ dye penetration and/or apoptosis, as indicated below.
Morphological analysis was done by inversion microscopy (NIKKON™ TMS), using phase-contrast objectives and a camera (NIKKON™ F70).

[2] = tested on: resorufin-labeled casein; assay: Detection of proteolytic activity with resorufin-labeled casein; format: biochemical; details: culture media conditioned by cells, in all cases
Experimental: Evaluation of proteolytic activity in CP preparations or in cell culture media was done with resorufin-labeled casein (universal protease chromogenic substrate; Roche Diagnostics). Aliquots (100 μL) of CP solutions (about 13 mg/mL) or of culture media of cells after 24 h treatment with and without CP were incubated at 37° C. for various times (up to 22 h), with 50 μL of resorufin-labeled casein solution provided by the manufacturer and 50 μL of 0.2 M Tris-HCl, pH 7.8 containing 0.02 M CaCl2. The reaction was stopped by adding 480 μL of 5% trichloroacetic acid. After 10 min of incubation at 37° C. and 5 min of centrifugation, 400 μL of the resulting supernatants were mixed with 600 μL of 0.5 M Tris-HCl, pH 8.8, and absorbance read at 574 nm. Alternately, resorufin-labeled casein was added to culture media (50 μL substrate for each 150 μL supplemented NEUROBASAL™ medium) while cells were being treated with CP. Culture media were removed at various times (up to 24 h) and subjected to acid precipitation and spectrophotometric measurement as indicated above. Trypsin (10100 U BAEE/mg; Sigma-Aldrich) was used as a standard.

[3] = tested on: P19 neurons; assay: Inhibition of CP-induced neuronal aggregation; format: cell-based, mouse; details: for inhibition of CP-induced aggregation, inhibitors tested individually: 6-7 TIU/mL or half this concentration, 3.8 μM CP; for inhibition of CP-induced neuronal aggregation: 6-7 trypsin inhibitory U/mL each, added 1 h before 3.8 μM CP, morphology and dye penetration analysis
Experimental: Protease inhibitors were added 1 h before CP.
Day 4 P19 neurons were plated in 24- or 48-well plates in prevision of dye penetration analysis. After treatment with CP or other agents, cells were incubated for 5 h with 500 μL of a solution containing one part of ALAMARBLUE™ (Medicorp Inc., Montreal, Quebec, Canada) and nine parts of fresh supplemented Neurobasal medium. This dye is reduced to a fluorescent derivative by metabolic activity of living cells. At the end of incubation, the fluorescence of the culture medium was monitored at 590 nm, using 540 nm as the excitation wavelength.

[4] = 1.14 to 49.2 μM, day 4 P19 neurons on gelatin

O=S(=O)([O-])[O-].[Cu+2] [CuSO4]
Morphological change ([1]; 246 μM): cell death | Morphological change [1, 4]: no aggregation | induction of neuronal aggregation (text summary of Table 1) [1]: did not induce neuronal aggregation

NC(Cc1c[nH]cn1)C(=O)[O-].NC(Cc1c[nH]cn1)C(=O)[O-].[Cu+2] (stereo not shown) [(His)2Cu complex]
Morphological change ([1]; 23 to 390 μM): no aggregation | induction of neuronal aggregation (text summary of Table 1) [1]: did not induce neuronal aggregation

[Cl][Cu][Cl] [CuCI2, CuCl2]
Morphological change ([1]; 246 μM): cell death | Morphological change [1, 4]: no aggregation | induction of neuronal aggregation (text summary of Table 1) [1]: did not induce neuronal aggregation

aprotinin
hydrolysis of resorufin-labeled casein [2]: completely abolished hydrolysis | inhibition of CP-induced aggregation, inhibitors tested individually [3]: Complete inhibition of aggregation | inhibition of CP-induced neuronal aggregation [3]: completely hindered

Bovine serum albumin: serum protein that can transport copper ions
inhibition of CP-induced neuroaggregation ([3]; albumin at 3.6 μM): did not inhibit | Morphological change ([1]; 0.3 to 7.5 μM): no aggregation | induction of neuronal aggregation (text summary of Table 1) [1]: failed to induce-aggregation

B1: SBTI: soybean trypsin inhibitor, serine protease inhibitor (protein, UniProt P01070 25-205, looked up)
Trypsin inhibitor A: DFVLDNEGNPLENGGTYYILSDITAFGGIRAAPTGNERCPLTVVQSRNELDKGIGTIISSPYRIRFIAEGHPLSLKFDSFAVIMLCVGIPTEWSVVEDLPEGPAVKIGENKDAMDGWFRLERVSDDEFNNYKLVFCPQQAEDDKCGDIGISIDHDDGTRRLVVSKNKPLVVQFQKLDKESL
hydrolysis of resorufin-labeled casein [2]: completely abolished hydrolysis | inhibition of CP-induced aggregation, inhibitors tested individually [3]: Complete inhibition of aggregation | inhibition of CP-induced neuronal aggregation [3]: completely hindered

B2: Bovine serum amineoxidase: 180 kDa circulating non-blue copper protein (protein, UniProt Q29437 17-762, looked up)
Primary amine oxidase, liver …: REEGGVGSEEGVGKQCHPSLPPRCPSRSPSDQPWTHPDQSQLFADLSREELTTVMSFLTQQLGPDLVDAAQARPSDNCVFSVELQLPPKAAALAHLDRGSPPPAREALAIVFFGGQPQPNVTELVVGPLPQPSYMRDVTVERHGGPLPYYRRPVLLREYLDIDQMIFNRELPQAAGVLHHCCSYKQGGQKLLTMNSAPRGVQSGDRSTWFGIYYNITKGGPYLHPVGLELLVDHKALDPADWTVQKVFFQGRYYENLAQLEEQFEAGQVNVVVIPDDGTGGFWSLKSQVPPGPTPPLQFHPQGPRFSVQGNRVASSLWTFSFGLGAFSGPRVFDVRFQGERLAYEISLQEAGAVYGGNTPAAMLTRYMDSGFGMGYFATPLIRGVDCPYLATYMDWHFVVESQTPKTLHDAFCVFEQNKGLPLRRHHSDFLSHYFGGVAQTVLVFRSVSTMLNYDYVWDMVFYPNGAIEVKLHATGYISSAFLFGAARRYGNQVGEHTLGPVHTHSAHYKVDLDVGGLENWVWAEDMAFVPTAIPWSPEHQIQRLQVTRKQLETEEQAAFPLGGASPRYLYLASKQSNKWGHPRGYRIQTVSFAGGPMPQNSPMERAFSWGRYQLAITQRKETEPSSSSVFNQNDPWTPTVDFSDFINNETIAGKDLVAWVTAGFLHIPHAEDIPNTVTVGNGVGFFLRPYNFFDQEPSMDSADSIYFREGQDAGSCEINPLACLPQAATCAPDLPVFSHGGYPEY
Morphological change ([1]; 0.28 to 0.56 μM): no aggregation | induction of neuronal aggregation (text summary of Table 1) [1]: did not induce aggregation
